Data as given in patent US10864210B2, “Composition and combined medication method for treating enterovirus infection” (priority 2016, dated 2020).

Legend:
Type in all cases: cell-based, Enterovirus 71
EV71 [1] = experiment: Evaluation experiment for compounds: inhibition of EV71-induced CPE in RD cells (CellTiter-Glo); settings: single compound, 2-fold dilutions
Experimental: Itraconazole purchased from Sigma-Aldrich is dissolved in DMSO to a final concentration of 10 mM; suramin purchased from Bayer is dissolved in a medium containing 2% FBS to a final concentration of 50 mM; favipiravir purchased from Chembest is dissolved in DMSO to a final concentration of 400 mM; rupintrivir purchased from Santa Cruz is dissolved in DMSO to a final concentration of 2 mM; and GW5074 purchased from Sigma is dissolved in DMSO to a final concentration of 10 mM. To evaluate the inhibition of EV71-induced CPE activity by five compounds, the inventors perform dose dependent experiments.
The raw data are input into an Excel sheet to calculate the signal-to-background ratio (S/B), the signal-to-noise ratio (S/N), Z factor, and the inhibition rate of the test compound against the virus. […] The antiviral activity of the compound CPE inhibition rate=(μcpd−μv)/(μc−μv)×100%, wherein μcpd represents the average signal intensity of the test compound; and the effect of the compound on the cell, cell survival rate=μcpd/μc×100%. The half maximum effect concentration (EC50) is a concentration that causes a 50% maximum effect. The half-cytotoxic concentration (CC50) refers to a concentration of the medicament that causes 50% cytotoxicity, which is expressed in this experiment as a 50% reduction in the fluorescence intensity of the experimental group compared with the control group.
(A) 2-fold dilution of itraconazole, rupintrivir, favipiravir, suramin, and GW5074 were separately added to RD cells, and virus or medium was added and cultured for 96 hours. The cell viability was measured by CellTiter-Glo kit. The inhibitory effects of […] compounds on EV71 and the toxic effects on cells were examined. (B) Virus and 2-fold dilution of itraconazole, rupintrivir, favipiravir, suramin, and GW5074 were separately added into RD cells. After 48 hours of culture, the supernatant was collected and the viral titer was determined by TCID50 method. The results were processed using Graphpad Prism5. The data in the figure were obtained from two independent parallel experiments, and the error bars represent the standard deviation of the two parallel experiments.

[2] = tested on: EV71 containing 3D protein mutation; experiment: Mutant virus resistance experiment based on cytopathic effect in Vero cells; settings: CPE-based
Experimental: To determine the resistance of the selected mutant virus and recombinant virus to the compound, the inventors conduct experiments based on cytopathic effects and viral titer reduction experiments. […] EV71 G082 strain is served as a control.
The supernatant from the 16th passage culture was collected and sequenced. EV71 containing 3D protein mutation was constructed by reverse genetics system. The viral titer was determined by plaque formation assay, the virus resistance to favipiravir was detected by viral titer reduction experiment. The experimental method was the same as the compound verification experiment. (B) The effects of itraconazole, rupintrivir, suramin and GW5074 on a virus containing 3D protein mutation were determined using an experiment based on cytopathic effect. The results were processed using Graphpad Prism5. The data in the figure were obtained from two independent parallel experiments, and the error bars represent the standard deviation of the two parallel experiments.

[3] = tested on: EV71 having amino acid residue mutation at position 121 in the 3D protein; experiment: Favipiravir resistance screening and viral titer reduction experiment in Vero cells; settings: viral titer reduction
Experimental: (§1) RD cells are seeded in a 12-well plate with 3×10^5 cells/well, cultured overnight at 37° C. for 24 hours. Then EV71 virus solution with MOI=0.1 and 2-fold dilution of itraconazole, rupintrivir, favipiravir, suramin and GW5074 are added and cultured at 37° C. for 48 h. The supernatant is collected, frozen in a −80° C. refrigerator, and then determined for viral titer. To determine the resistance of the passaged virus to favipiravir, the inventors inoculate Vero cells in a 12-well plate, 3×10^5 cells/well and culture overnight at 37° C. After 24 hours, EV71 virus solution with MOI=0.1 is added and 300 μM and 600 μM favipiravir are separately added. After cultured at 37° C. for 48 hours, the supernatant is collected and frozen in a −80° C. refrigerator, and then the viral titer is measured.
The present inventors conduct a passage experiment to screen a favipiravir resistant strain. 3×10^5 Vero cells are seeded in a 12-well plate, cultured overnight at 37° C. […] After 16 continuous passages, the titer of the virus in the supernatant, the resistance to the compound, and sequencing are determined. […]
The supernatant from the 16th passage culture was collected and sequenced. […] The viral titer was determined by plaque formation assay, the virus resistance to favipiravir was detected by viral titer reduction experiment. […]

EV71 [4] = experiment: Viral titer reduction experiment (single compound)
Experimental: as §1
EV71, itraconazole, and 0.5 μM or 1 μM of rupintrivir were simultaneously added to Vero cells, the virus was subcultured, and the supernatant was collected.

Row | SMILES | inhibition of EV71 infection of cells (EV71 [1]) | cross-resistance of favipiravir-resistant mutant virus compared with wild type virus (G082) [2] | resistance of EV71 with position 121 3D protein mutation to the compound [3] | removal of viruses in the cell culture by single compound (EV71 [4])
1 | O=C1Nc2ccc(I)cc2/C1=C/c1cc(Br)c(O)c(Br)c1 [GW5074] | effective in inhibiting EV71 infection of cells in a dose-dependent manner | no cross-resistance was found | – | –
2 | NC(=O)c1nc(F)cnc1O [favipiravir] | effective in inhibiting EV71 infection of cells in a dose-dependent manner | – | resistant | –
3 | CCC(C)n1ncn(-c2ccc(N3CCN(c4ccc(OCC5COC(Cn6cncn6)(c6ccc(Cl)cc6Cl)O5)cc4)CC3)cc2)c1=O (centres unmarked) [itraconazole] | effective in inhibiting EV71 infection of cells in a dose-dependent manner | no cross-resistance was found | – | could not remove all the viruses in the cell culture
4 | CCOC(=O)/C=C/[C@H](C[C@@H]1CCNC1=O)NC(=O)[C@@H](CC(=O)[C@@H](NC(=O)c1cc(C)on1)C(C)C)Cc1ccc(F)cc1 [rupintrivir] | effective in inhibiting EV71 infection of cells in a dose-dependent manner | no cross-resistance was found | – | –
5 | Cc1ccc(C(=O)Nc2ccc(S(=O)(=O)O)c3cc(S(=O)(=O)O)cc(S(=O)(=O)O)c23)cc1NC(=O)c1cccc(NC(=O)Nc2cccc(C(=O)Nc3cc(C(=O)Nc4ccc(S(=O)(=O)O)c5cc(S(=O)(=O)O)cc(S(=O)(=O)O)c45)ccc3C)c2)c1 [suramin] | effective in inhibiting EV71 infection of cells in a dose-dependent manner | no cross-resistance was found | – | –
